Laboratory results reported in paper PMC4237199 (The Prostate, 2014).

Target: Prostate-specific membrane antigen (PSMA), canine (Canis lupus, UniProt I4IY07)
Assay: HPLC-based enzyme inhibition assay
Assay type: biochemical

Prostate-specific membrane antigen (PSMA), canine, sequence (I4IY07 29-779): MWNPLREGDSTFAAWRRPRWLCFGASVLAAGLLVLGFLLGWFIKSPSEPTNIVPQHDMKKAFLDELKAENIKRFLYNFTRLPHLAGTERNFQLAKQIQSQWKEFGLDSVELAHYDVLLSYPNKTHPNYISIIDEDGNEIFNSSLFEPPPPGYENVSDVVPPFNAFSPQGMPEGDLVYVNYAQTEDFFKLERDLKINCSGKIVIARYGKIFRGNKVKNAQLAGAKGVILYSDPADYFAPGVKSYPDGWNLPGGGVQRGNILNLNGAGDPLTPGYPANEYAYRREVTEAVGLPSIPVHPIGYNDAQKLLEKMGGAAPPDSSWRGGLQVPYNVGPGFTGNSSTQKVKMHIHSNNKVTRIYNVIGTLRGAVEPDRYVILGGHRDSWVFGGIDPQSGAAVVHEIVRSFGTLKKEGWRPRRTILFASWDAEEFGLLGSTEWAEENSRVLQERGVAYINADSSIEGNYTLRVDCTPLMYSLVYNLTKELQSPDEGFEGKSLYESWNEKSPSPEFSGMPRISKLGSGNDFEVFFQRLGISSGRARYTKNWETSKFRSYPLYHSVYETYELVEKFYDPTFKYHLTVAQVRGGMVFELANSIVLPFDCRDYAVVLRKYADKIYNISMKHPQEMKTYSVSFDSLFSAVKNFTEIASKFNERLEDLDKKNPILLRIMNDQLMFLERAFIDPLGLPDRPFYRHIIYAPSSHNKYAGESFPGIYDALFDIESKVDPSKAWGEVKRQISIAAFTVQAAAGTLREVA

IC50: 1.6 nM
Substance: FAMX-CTT-54 [compound 2]
